Measurements published in US8802664B2 (Bioproject, priority 2010, dated 2014).

biological target: T1, human H4 receptor (Homo sapiens, UniProt Q9H3N8); assay: [3H]Histamine binding on membranes of CHO cells stably expressing human H4 receptor; details: not given
T1 construct: expressed in transfected cells
Outline: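 Membranes from sub-confluent CHO-hH4 cells, 20 μg protein per well, were incubated in 50 mM Tris/HCl, 0.5 mM EDTA, pH 7.4. Nonspecific binding was defined with 10 μM JNJ 7777120. Bound radioactivity was collected on PEI-soaked GF/B filters and counted by liquid scintillation.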

Row | Structure (SMILES) | Ki or IC50 activity class [nM]
1 | CN1CCC(OC(c2cccc(SCCNC(=N)N)c2)c2nc3ccccc3s2)CC1 (stereo not shown) [Example 302, N-(2-{3-[benzothiazol-2-yl(1-methylpiperidin-4-yloxy)methyl]phenylsulfanyl}ethyl)guanidine] | < 30
2 | CN1CCC(OC(c2cccc(OCCN3CCN(C(=O)OC(C)(C)C)CC3)c2)c2nc3ccccc3s2)CC1 (stereo not shown) [Example 328, 4-(2-{3-[benzothiazol-2-yl(1-methylpiperidin-4-yloxy)methyl]phenoxy}ethyl)piperazine-1-carboxylic acid tert-butyl ester] | < 30
3 | CN1CCC(OC(c2ccccc2)c2nc3ccccc3s2)C1 (stereo not shown) [Example 2, 2-[(1-methylpyrrolidin-3-yloxy)phenyl-methyl]benzothiazole] | < 1000
4 | CN1CCC(OC(c2cccc(C(=O)N(C)Cc3ccccc3)c2)c2nc3ccccc3s2)CC1 (stereo not shown) [Example 219, 3-[benzothiazol-2-yl(1-methylpiperidin-4-yloxy)methyl]-N-benzyl-N-methylbenzamide] | < 1000
5 | CN1CCC(OC(c2cccc(C#CCO)c2)c2nc3ccccc3s2)CC1 (stereo not shown) [Example 227, 3-{3-[benzothiazol-2-yl(1-methylpiperidin-4-yloxy)methyl]phenyl}prop-2-yn-1-ol] | < 30
6 | CN1CCC(OC(c2cccc(OCCCn3cncn3)c2)c2nc3ccccc3s2)CC1 (stereo not shown) [Example 348, 2-{(1-methylpiperidin-4-yloxy)[3-(3-[1,2,4]triazol-1-yl-propoxy)phenyl]methyl}benzothiazole] | < 1000
7 | CN1CCC(OC(c2cccc(OC(F)(F)F)c2)c2nc3ccccc3s2)CC1 (stereo not shown) [Example 23, 2-[(1-methylpiperidin-4-yloxy)(3-trifluoromethoxyphenyl)methyl]benzothiazole] | < 30
8 | CN1CCC(OC(c2cccc(C#CCCCCN)c2)c2nc3ccccc3s2)CC1 (stereo not shown) [Example 319, 6-{3-[benzothiazol-2-yl(1-methylpiperidin-4-yloxy)methyl]phenyl}hex-5-ynylamine] | < 30
9 | CN1CCC(OC(c2cccc(OCC=CCO)c2)c2nc3ccccc3s2)CC1 (stereo not shown) [Example 422, 4-{3-[benzothiazol-2-yl(1-methylpiperidin-4-yloxy)methyl]phenoxy}but-2-en-1-ol] | < 30
10 | CN1CCC(OC(c2cccc(N3CCC(F)C3)c2)c2nc3ccccc3s2)CC1 (stereo not shown) [Example 430, 2-[[3-(3-fluoropyrrolidin-1-yl)phenyl](1-methylpiperidin-4-yloxy)methyl]benzothiazole] | < 30
11 | COC(=O)CSc1cccc(C(OC2CCN(C)CC2)c2nc3ccccc3s2)c1 (stereo not shown) [Example 160, {3-[benzothiazol-2-yl(1-methylpiperidin-4-yloxy)methyl]phenylsulfanyl}acetic acid methyl ester] | < 30
12 | CN1CCC(OC(c2cccc(OC3CCNCC3)c2)c2nc3ccccc3s2)CC1 (stereo not shown) [Example 415, 2-{(1-methylpiperidin-4-yloxy)[3-(piperidin-4-yloxy)phenyl]methyl}benzothiazole] | < 300
13 | CN1CCC(NC(c2cccc(OCc3cccc(F)c3)c2)c2nc3ccccc3[nH]2)CC1 (stereo not shown) [Example 105, {(1H-benzimidazol-2-yl)[3-(3-fluorobenzyloxy)phenyl]methyl}(1-methylpiperidin-4-yl)amine] | < 30
14 | Cc1ccccc1COc1cccc(C(NC2CCN(C)CC2)c2nc3ccccc3[nH]2)c1 (stereo not shown) [Example 129, {(1H-benzimidazol-2-yl)[3-(2-methylbenzyloxy)phenyl]methyl}(1-methylpiperidin-4-yl)amine] | < 30

The next lines start with the values.

Row | Ki or IC50 activity class [nM] | Structure (SMILES)
15 | < 300 | CN1CCC(OC(c2cccc(CCCCCNC(=N)N)c2)c2nc3ccccc3[nH]2)CC1 (stereo not shown) [Example 397, N-(5-{3-[(1H-benzimidazol-2-yl)(1-methylpiperidin-4-yloxy)methyl]phenyl}pentyl)guanidine]
16 | < 30 | CN1CCC(OC(c2nc3ccccc3[nH]2)c2cc(OC(F)(F)F)ccc2F)CC1 (single isomer, unassigned) [Example 435, 2-[(2-fluoro-5-trifluoromethoxyphenyl)(1-methylpiperidin-4-yloxy)methyl]-1H-benzimidazole]
17 | < 300 | CN1CCC(OC(c2cccc(OCCCF)c2)c2nc3ccccc3[nH]2)CC1 (stereo not shown) [Example 475]
18 | < 300 | CN1CCC(OC(c2cccc(-c3cccc(F)c3)c2)c2nc3ccccc3[nH]2)CC1 (stereo not shown) [Example 109, 2-[(3′-fluoro-biphenyl-3-yl)(1-methylpiperidin-4-yloxy)methyl]-1H-benzimidazole]
19 | < 300 | CN1CCC(OC(c2cccc(C#CCCCn3ccnc3)c2)c2nc3ccccc3[nH]2)CC1 (stereo not shown) [Example 409, 2-[[3-(5-imidazol-1-ylpent-1-ynyl)phenyl](1-methylpiperidin-4-yloxy)methyl]-1H-benzimidazole]
20 | < 300 | CN1CCC(OC(c2cccc(-c3cccc(CO)c3)c2)c2nc3ccccc3[nH]2)CC1 (stereo not shown) [Example 86, {3′-[(1H-benzimidazol-2-yl)(1-methylpiperidin-4-yloxy)methyl]biphenyl-3-yl}methanol]
21 | < 30 | CN1CCC(OC(c2cccc(CCCNC(=N)N)c2)c2nc3ccccc3[nH]2)CC1 (stereo not shown) [Example 320, N-(3-{3-[(1H-benzimidazol-2-yl)(1-methylpiperidin-4-yloxy)methyl]phenyl}propyl)guanidine]
22 | < 30 | CN1CCC(OC(c2cccc(C=CCCCN)c2)c2nc3ccccc3[nH]2)CC1 (stereo not shown) [Example 421, 5-{3-[(1H-benzimidazol-2-yl)(1-methylpiperidin-4-yloxy)methyl]phenyl}pent-4-enylamine]
23 | < 300 | CN1CCC(OC(c2cccc(SCc3ccccc3)c2)c2nc3ccccc3[nH]2)CC1 (stereo not shown) [Example 150, 2-[(3-benzylsulfanylphenyl)(1-methylpiperidin-4-yloxy)methyl]-1H-benzimidazole]
24 | < 300 | CN1CCC(OC(c2cccc(-c3ccc(Cl)c(Cl)c3)c2)c2nc3ccccc3[nH]2)CC1 (stereo not shown) [Example 122, 2-[(3′,4′-dichlorobiphenyl-3-yl)(1-methylpiperidin-4-yloxy)methyl]-1H-benzimidazole]
25 | < 300 | CN1CCC(OC(c2cccc(-c3ccccc3F)c2)c2nc3ccccc3s2)CC1 (stereo not shown) [Example 137, 2-[(2′-fluorobiphenyl-3-yl)(1-methylpiperidin-4-yloxy)methyl]benzothiazole]
26 | < 30 | CN1CCC(OC(c2cccc(SCC=CCN)c2)c2nc3ccccc3[nH]2)CC1 (stereo not shown) [Example 473]
27 | < 30 | CN1CCC(OC(c2cccc(SCCCN)c2)c2nc3ccccc3s2)CC1 (stereo not shown) [Example 314, 3-{3-[benzothiazol-2-yl(1-methylpiperidin-4-yloxy)methyl]phenylsulfanyl}propylamine]
28 | < 1000 | CN1CCC(OC(c2cc(C(F)(F)F)cc(C(F)(F)F)c2)c2nc3ccccc3[nH]2)CC1 (stereo not shown) [Example 547]
29 | < 300 | Cc1ccc(F)c(C(OC2CCN(C)CC2)c2nc3ccccc3[nH]2)c1 (stereo not shown) [Example 490]
30 | < 300 | Cc1ccc(C(OC2CCN(C)CC2)c2nc3ccccc3[nH]2)c(Cl)c1 (stereo not shown) [Example 213, 2-[(2-chloro-4-methylphenyl)(1-methylpiperidin-4-yloxy)methyl]-1H-benzimidazole]

same assay, conditions: human H4 receptor; evaluated in the GTPγ[35S] assay or in the [3H]histamine binding assay (not stated which per compound); Ki or IC50 class

Row | Structure (SMILES) | Ki or IC50 activity class [nM]
31 | CC(C)C(=O)N(CCSc1cccc(C(OC2CCN(C)CC2)c2nc3ccccc3[nH]2)c1)C(=N)N (stereo not shown) [Example 478] | < 300
